Columns and labels:
[1] = test system: Plasmodium falciparum; experiment: ST_JUDE: Plasmodium falciparum 3D7 EC50 (uM) as measured by SYBR green dye; assay type: functional, organism-based
[2] = test system: Plasmodium falciparum; experiment: ST_JUDE: Plasmodium falciparum K1 EC50 (uM) as measured by SYBR green dye; assay type: functional, organism-based

SMILES | EC50 [1] | EC50 [2]
C=C(C)CCC(C)N1CCC(n2nccc2NC(=O)Nc2ccccc2Cl)CC1 (stereo not drawn) | 3.7 µM | > 15 µM
CCN1/C(=C/c2sc3ccccc3[n+]2CCO)C=Cc2cc(OC)ccc21 | 1.07 µM | 0.571 µM
CCCCc1ccc(NS(=O)(=O)c2cc3c4c(c2)CCN4C(=O)CC3)cc1 | > 15 µM | > 15 µM
CCCCNc1ccc2cccc(O)c2n1 | > 15 µM | 4.37 µM
CCOc1ccc(Nc2nc(NCc3ccco3)c3ccccc3n2)cc1 | 1.19 µM | 2.64 µM
COc1ccc(OC)c2sc(N(Cc3cccnc3)C(=O)c3cccc(Cl)c3)nc12 | > 15 µM | 1.65 µM
O=C(O)c1ccc(NC2=C(n3nnc4ccccc43)C(=O)c3ccccc3C2=O)cc1 | > 15 µM | 1.49 µM
CC(C)(C)c1ccc(C(=O)Nc2c3c(nn2-c2cccc(Cl)c2)CSC3)cc1 | > 15 µM | > 15 µM
CCCOCc1cc(CN2CCN(c3cccc(Cl)c3)CC2)c(O)c2ncccc12 | 1.1 µM | 0.896 µM
Cc1ccc(O)c(Nc2nc(-c3ccccc3)nc3ccccc23)c1 | 3.83 µM | 1.31 µM
CSCCC(=O)N(C)C(Cc1ccc(F)cc1)C1CCN(C(=O)c2cc3ccccc3n2C)CC1 (stereo not drawn) | > 15 µM | > 15 µM
COc1ccc2c(ccc(/C=C3\C=CC=CN3C)[n+]2C)c1 | 1.17 µM | 0.842 µM
Cc1ccc(-n2nc(C)c3c(C)c(CCC(=O)Nc4ccc5[nH]c(-c6cccnc6)nc5c4)c(C)nc32)cc1C | 0.798 µM | 1.04 µM
CCc1ccccc1NC(=O)c1csc2c1CCC(C)C2 (stereo not drawn) | > 15 µM | > 15 µM
CCc1c(C)c2cc3c(c(C)c2oc1=O)OCN(CCc1ccccc1OC)C3 | 0.757 µM | 0.223 µM
CCC(=O)NC(c1ccco1)c1cc(Cl)c2cccnc2c1O (stereo not drawn) | > 15 µM | 2.69 µM
CN(C)CCCNCc1ccc2[nH]c3ccccc3c2c1 | 0.35 µM | > 15 µM
CC[N+](C)(CC)CCCOc1ccc2c(c1)C(=O)c1cc(OCCC[N+](C)(CC)CC)ccc1-2 | 0.655 µM | 0.413 µM
Cc1ccccc1NC(=O)Nc1ccnn1C1CCN(Cc2ccc(OC(C)C)cc2)CC1 | 6.74 µM | > 15 µM
Cc1cc(Nc2ccc(F)c(Cl)c2)n2nc(C)nc2n1 | 3.2 µM | 9.17 µM
COCCN1C(=O)c2ccccc2C(C(=O)Nc2ccc(OC)c(Cl)c2)C1c1cccs1 (stereo not drawn) | 2.01 µM | 2.48 µM
CCOc1ccccc1C(=O)Nc1cc2c3c(c1)CCN3C(=O)CC2 | > 15 µM | > 15 µM

SMILES | EC50 [1] | EC50 [2]
COc1cccc(C2=C(C(C)=O)Sc3nnc(C)n3N2C(C)=O)c1 | 6.59 µM | 5.95 µM
Cc1ccc(C)c(C(Nc2ccccn2)c2cc(Cl)c3cccnc3c2O)c1 (stereo not drawn) | > 15 µM | > 15 µM
CC1CCN(Cc2cc(COCc3ccccc3)c3cccnc3c2O)CC1 | 2.87 µM | 3.19 µM
CC(=O)N1CCc2c(sc(NC(=O)c3ccc(C)c(C)c3)c2C(N)=O)C1 | > 15 µM | > 15 µM
Oc1c(C(Nc2ccccn2)c2ccccc2Br)cc(Cl)c2cccnc12 (stereo not drawn) | 2.13 µM | > 15 µM
CCc1ccc(OC(C)C(=O)Nc2nccs2)cc1 (stereo not drawn) | > 15 µM | > 15 µM
Cc1ccc(Cn2c(=O)c3ccccc3n3c(CCC(=O)N4CCC(C(N)=O)CC4)nnc23)cc1 | > 15 µM | > 15 µM
O=C1C(NC2CCCCC2)=C(N2CCCCC2)C(=O)c2ccccc21 | 0.0191 µM | 0.0247 µM
CCN(CC)c1cc(C)c2cc(NC(=O)c3ccc(F)cc3)ccc2n1 | > 15 µM | > 15 µM
COC(=O)c1c(S(=O)(=O)N2CCCC2)sc2c1CCN(Cc1c[nH]nc1-c1ccccc1)C2 | > 15 µM | > 15 µM
CCN(CC)CCCNC(=O)C1CCN(c2nc3c(C)cc(C)cc3s2)CC1 | > 15 µM | > 15 µM
CCN(CC)c1cc(C)c2cc(NC(=O)c3cccc([N+](=O)[O-])c3)ccc2n1 | 0.59 µM | > 15 µM
CC(C)C[C@@H](CO)Nc1c2ccccc2nc2ccccc12 | 2.85 µM | 4.3 µM
COc1ccc(Br)cc1C(Nc1ccccn1)c1cc(Cl)c2cccnc2c1O (stereo not drawn) | > 15 µM | 2.95 µM
CCCCCCc1cc(O)c2c(C)cc(=O)oc2c1 | > 15 µM | 4.15 µM
Cc1ccc(C(=O)N2CCc3ccccc32)cc1Br | > 15 µM | > 15 µM
CCC1(C)CC(CCN)(c2ccc(C)cc2)CCO1 (stereo not drawn) | 4.8 µM | > 15 µM
O=C(CSc1ccccc1[N+](=O)[O-])Nc1cccc(Br)c1 | > 15 µM | > 15 µM
Cc1cccc(-n2ccnc2SCC(=O)Nc2cccc(F)c2)c1C | > 15 µM | 7.99 µM
CCOC(=O)c1cnc2ccc(OC)cc2c1Nc1ccc(N2CCN(C)CC2)cc1 | 0.575 µM | 1.29 µM
COc1ccc(C(O)(CCC(C)C)C(CN2CCOCC2)c2ccc(Cl)cc2)cc1 (stereo not drawn) | 4.61 µM | 3.5 µM
O=C(NC(c1cccc([N+](=O)[O-])c1)c1cc(Cl)c2cccnc2c1O)c1cccnc1 (stereo not drawn) | 4.65 µM | 2.73 µM

SMILES | EC50 [1] | EC50 [2]
CC(C(=O)c1ccc(-c2ccccc2)cc1)[n+]1ccccc1 (stereo not drawn) | 7.02 µM | 4 µM
N=C(N)N/N=C/c1ccc(OCc2ccc(Cl)cc2Cl)cc1 | 4.9 µM | 4.27 µM
Cc1cc(N2CCN(C)CC2)nc2ccc(NC(=O)/C=C/c3ccccc3OC(C)C)cc12 | 3.36 µM | 5.57 µM
CC(=O)NC(c1ccccc1Cl)c1ccc2cccnc2c1O (stereo not drawn) | 3.39 µM | 3.79 µM
C[n+]1ccc(C=Cc2ccc(O)cc2)cc1 | 3.97 µM | 4.01 µM
CCOC(=O)c1cnc2c(C)c(C)ccc2c1Nc1cc([N+](=O)[O-])ccc1O | > 15 µM | > 15 µM
COc1ccc(N2C(=O)/C(=C/Nc3ccc(F)cc3)c3ccccc3C2=O)cc1 | > 15 µM | > 15 µM
CCCc1cc(O)nc(-n2nc(C)cc2NC(=O)c2ccccc2F)n1 | > 15 µM | > 15 µM
COc1ccc(-c2nn(C)c3sc(C(=O)Nc4cccc(SC)c4)cc23)cc1OC | > 15 µM | 5.24 µM
CCN(CC)CCCC(C)Nc1nc(C)nc2cc(Cl)ccc12 (stereo not drawn) | 6.6 µM | > 15 µM
CCCCNc1nc(Nc2cccc(C)c2)c2cnn(-c3ccccc3)c2n1 | > 15 µM | 7.9 µM
CCN(CC)c1ccc(CNC(C)C(O)c2ccccc2)cc1 (stereo not drawn) | 4.1 µM | 0.98 µM
COc1cccc(C(=O)NC(c2ccc(Cl)cc2)c2cc(Cl)c3cccnc3c2O)c1 (stereo not drawn) | 2.01 µM | 1.66 µM
CN(C)CCCNc1c2ccccc2nc2ccccc12 | 0.531 µM | 3.71 µM
CCOC(=O)c1cnc2ccc(OCC)cc2c1NCCc1ccccc1 | > 15 µM | > 15 µM
O=C(NCCN1CCOCC1)C(=O)Nc1ccc(F)cc1F | > 15 µM | > 15 µM
CCCCN(C)Cc1c(O)ccc2c(=O)c(Oc3ccccc3OCC)c(C(F)(F)F)oc12 | 2 µM | 1.47 µM
CC(C)C(=O)NC(c1ccc(Cl)cc1Cl)c1ccc2cccnc2c1O (stereo not drawn) | 3.65 µM | 4.6 µM
Cc1ccc(Cn2c(=N)n(CC(=O)c3ccc([N+](=O)[O-])cc3)c3ccccc32)cc1 | 7.64 µM | 10.4 µM
COc1ccc(O)c(CN2CCN(Cc3ccc(C)cc3)CC2)c1 | 1.62 µM | 0.988 µM

Source: ChEMBL document CHEMBL1154198, “Chemical genetics of Plasmodium falciparum” (Nature, 2010)
